These results are taken from patent US20160138077A1, “MONITORING AND ASSESSING DEACETYLASE ENZYME ACTIVITY” (THE GENERAL HOSPITAL CORPORATION, priority 2013, published 2016).

One experiment concerns the target HDAC2 (Homo sapiens, UniProt Q92769). Briefly: Caliper microfluidic endpoint IC50 assay. In kind it is biochemical. As for the experimental part: (§1) HP-1 and HP-2 IC50 values for HDAC1 were determined using the Trypsin-coupled assay as well as the Caliper endpoint assay. HP-1 and HP-2 IC50 values for HDAC2, HDAC3, HDAC6 and HDAC8 were determined with the Caliper endpoint assay.
(§2) The Caliper microfluidic assay was performed at the Broad Institute exactly as previously described.^5
(§3) IC50 measurements. HP-1 and HP-2 IC50 values for HDAC1 were determined using the Trypsin-coupled assay as well as the Caliper endpoint assay. HP-1 and HP-2 IC50 values for HDAC2, HDAC3, HDAC6 and HDAC8 were determined with the Caliper endpoint assay (full experimental details in Example 1).

For a further experiment, the target named is T1, HDAC3 (Homo sapiens, UniProt O15379).
T1 construct: purchased Cayman Chemicals
T1 sequence (O15379 whole entry): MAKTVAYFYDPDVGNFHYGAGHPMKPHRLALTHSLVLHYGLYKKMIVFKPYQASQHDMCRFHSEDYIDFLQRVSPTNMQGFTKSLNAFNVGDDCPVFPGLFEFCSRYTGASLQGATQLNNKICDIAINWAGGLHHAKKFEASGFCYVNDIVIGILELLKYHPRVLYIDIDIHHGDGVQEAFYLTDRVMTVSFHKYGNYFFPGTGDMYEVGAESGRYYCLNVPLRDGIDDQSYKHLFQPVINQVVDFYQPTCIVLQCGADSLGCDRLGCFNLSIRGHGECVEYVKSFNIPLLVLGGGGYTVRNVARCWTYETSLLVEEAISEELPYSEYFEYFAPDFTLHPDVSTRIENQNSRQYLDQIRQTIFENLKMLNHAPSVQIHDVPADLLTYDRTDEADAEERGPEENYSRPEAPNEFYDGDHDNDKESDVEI
T1 sequence (Q9Y618 395-489 partner limits assumed): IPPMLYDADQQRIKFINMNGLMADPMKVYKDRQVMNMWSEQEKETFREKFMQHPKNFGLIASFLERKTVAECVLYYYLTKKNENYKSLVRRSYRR
Briefly: Caliper microfluidic endpoint IC50 assay. In kind it is biochemical. As for the experimental part:
as §1, §2, §3

The target in a further experiment is T2, HDAC8 (Homo sapiens, UniProt Q9BY41).
T2 construct: purchased Cayman Chemicals
T2 sequence (Q9BY41 1-377): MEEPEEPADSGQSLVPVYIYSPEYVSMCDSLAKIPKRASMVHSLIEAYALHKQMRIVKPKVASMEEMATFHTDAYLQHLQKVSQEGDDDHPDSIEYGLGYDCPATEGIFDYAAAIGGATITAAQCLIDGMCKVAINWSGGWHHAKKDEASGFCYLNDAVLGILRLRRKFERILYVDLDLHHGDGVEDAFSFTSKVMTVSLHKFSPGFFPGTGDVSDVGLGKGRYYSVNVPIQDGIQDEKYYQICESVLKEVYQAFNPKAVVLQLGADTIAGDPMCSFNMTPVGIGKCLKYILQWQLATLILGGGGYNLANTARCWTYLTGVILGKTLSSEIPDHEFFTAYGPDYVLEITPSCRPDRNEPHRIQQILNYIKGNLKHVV
Briefly: Caliper microfluidic endpoint IC50 assay. In kind it is biochemical. As for the experimental part: as §1, §2, §3

In another experiment the test system is HeLa cells. Briefly: Determination of HDAC activity in HeLa cells by LC-MS. In kind it is cell-based. The settings on record: live HeLa cells, 5 μM, over 24 h. As for the experimental part: HeLa cell culture and treatment with HP-1 and HP-2. HeLa cells (ATCC) were grown as a monolayer in Eagles Minimum Essential Medium (EMEM, GIBCO, BRL, Gaithersburg, Md.) with 10% Fetal Bovine Serum (FBS, GIBCO, BRL, Gaithersburg, Md.) and 1% penicillin/streptomycin ([…]). All cell culture dishes were maintained in a humidified atmosphere with 5% CO2 at 37° C.
Determination of HDAC activity in HeLa cells by LC-MS. HDAC activity in HeLa cells was analyzed by performing an LCMS assay. Solutions of HP-1 and HP-2 (200 mM each) were prepared in DMSO and diluted in HDAC buffer to a final concentration of 100 μM. […] Cells were scraped off of the flask, lysed in milipore water (90 μL) using a mechanical homogenizer, centrifuged (at 14,000×g for 2 min) and 20 μL aliquot of supernatant from each sample was analyzed by LCMS. […] The peak area for each detected compound was measured to determine the % conversion. For HP-1, the corresponding (M+H)^+ ion was detected. […] The peak area for each detected compound was measured to determine the % conversion of each probe. […]
Determination of HDAC activity in HeLa cells by LC-MS. […] Cells were scraped off of the flask, lysed in Millipore water using a mechanical homogenizer, and supernatant of the lysed samples were analyzed by LC-MS. […] The peak area for each detected compound was measured to determine the % conversion versus time (full experimental details in Example 1).

Each structure is given as a SMILES string. Bounds are passed on as bounds.

Chain of HDAC2 (Q92769 whole entry, species assumed): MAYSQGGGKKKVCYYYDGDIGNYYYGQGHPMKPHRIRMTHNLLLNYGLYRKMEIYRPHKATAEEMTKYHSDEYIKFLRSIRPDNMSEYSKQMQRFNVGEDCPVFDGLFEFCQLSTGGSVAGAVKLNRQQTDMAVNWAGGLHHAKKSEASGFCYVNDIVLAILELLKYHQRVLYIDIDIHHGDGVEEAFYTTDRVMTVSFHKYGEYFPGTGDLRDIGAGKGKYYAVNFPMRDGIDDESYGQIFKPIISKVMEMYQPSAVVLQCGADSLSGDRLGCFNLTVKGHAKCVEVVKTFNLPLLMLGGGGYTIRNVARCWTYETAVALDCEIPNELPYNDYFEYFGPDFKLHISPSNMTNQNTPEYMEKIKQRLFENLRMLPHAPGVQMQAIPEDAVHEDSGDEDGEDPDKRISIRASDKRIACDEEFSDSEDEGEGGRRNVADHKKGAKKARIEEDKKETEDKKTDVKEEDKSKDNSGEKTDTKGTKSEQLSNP

One may read the IC50 as the concentration at which inhibition is half-maximal. With `CC(=O)NC=CCCCCNC(=O)CCCCCNc1ccc([N+](=O)[O-])c2nonc12` [HP-1], the IC50 was > 70 µM against HDAC2, 59 µM against HDAC3 and > 70 µM against HDAC8. Also, in the experiment with HeLa cells (absence of SAHA, LCMS of supernatants and lysates), the HP-1 cleaved is on record as 80%. Further, the “Cleavage of HP-1” value in the experiment on HeLa cells (addition of SAHA (10 μM)) worked out at 20%.
